Measurements reported in the NIST ThermoML archive (doi:10.1016/j.jct.2008.09.020).
Where “and” joins values, the source holds several entries; their conditions need not be identical. Equal entries are not always repeated. Numbers after ± are expanded uncertainties.

Settings: 313.15 K; Liquid; Ebulliometric method (Recirculating still)

Row | Compound | vapor or sublimation pressure
1 | C=CCCCC [hex-1-ene] | 44.96 ± 0.28 kPa and 44.94 ± 0.28 kPa
2 | Cc1ccccc1 [toluene] | 7.869 ± 0.07 kPa and 7.872 ± 0.07 kPa
3 | CCOC(C)(C)C [2-ethoxy-2-methylpropane] | 31.63 ± 0.17 kPa and 31.64 ± 0.17 kPa
